Measured values reported in patent US20180016259A1, “QUINAZOLINE INHIBITORS OF ACTIVATING MUTANT FORMS OF EPIDERMAL GROWTH FACTOR RECEPTOR” (AstraZeneca AB, priority 2013, published 2018).
Like-named read-outs stand apart in the source and are kept apart here. Values belong to the compound of their own block, whether it stands above or below them.

Experiments:
[1] = Brain blood barrier penetration assay (short oral absorption model with in vitro blood and brain binding); assay type: in vivo; details: male Han Wistar rats, oral 2 mg/kg in 1% methylcellulose; for Kp uu: rat
Source text: Both Kp,uu brain and Kp,uu CSF should be the main parameters measured and optimized in CNS drug discovery (Di L et al., Journal of Medicinal Chemistry [2013], 56: 2-12). Kp,uu brain, the relationship between concentrations of unbound drug in brain and in blood, predicts drug action on metastatic tumors in brain Leptomeningeal metastasis (LM) results from metastatic spread of cancer to the leptomeninges, giving rise to central nervous system dysfunction. Kp,uu CSF represents the distribution of drug in CSF as compared to that in blood, which drives drug response during leptomeningeal metastasis treatment.
In vitro blood and brain binding assay was carried out on a HT-Dialysis plate (Gales Ferry, Conn.) with semi-permeable membrane. Diluted blood (1:1 with DPBS pH7.4) and brain homogenate (1:3 with DPBS pH7.4) were spiked with 5 μM test compound (in triplicate) and dialyzed against equal volume of 150 μL 100 mM PBS buffer (pH7.4) at 37° C. for 4 hours in a slowly rotated plate. At the end of incubation, a 50 μL aliquot from the receiver side and a […] from the donor chamber were taken. The 5 μL sample was further diluted with 45 μL of blank blood or brain homogenate. Paired samples were matrix-matched with either buffer or blank blood/brain homogenate and mixed for 2 min, and then precipitated with 150 μL cold acetonitrile with 100 ng/mL tolbutamide as internal standard. After centrifuging at 4000 rpm for 20 min, supernatant was diluted with 0.1% formic acid aqueous solution and analyzed for LC/MS/MS (API 4000, Applied Biosystems, Foster City). […]. D is dilution factor.
A Short oral absorption (SOA) model is an in-vivo screening model to identify brain penetration of a compound. Six male Han Wistar rats purchased from Beijing Vital River were orally dosed with the compound at 2 mg/kg in 1% methylcellulose. At 0.25, 0.5, 1, 2, 4 and 7 hour post-dose, cerebral spinal fluid (CSF) was collected from cisterna magna, and blood samples (>60 μL/time point/each site) were collected via cardiac puncture, into separate EDTA […] tubes, and then immediately diluted with 3-fold volume of water. Brain tissue was harvested and homogenized in 3× volume of 100 mM phosphate buffered saline (pH7.4). All samples were stored at ˜−70° C. prior to LC/MS/MS analysis.
Standards were prepared by spiking blank blood, brain homogenate and artificial CSF covering 0.2 to 500 ng/mL. Homogenized brain tissue along with blood samples were precipitated by adding 3-fold volume of cold acetonitrile containing internal standard (40 ng/mL Dexamethasone and 40 ng/mL Diclofenac), and 10 μL of CSF samples were precipitated with 100 μL of cold acetonitrile containing internal standard. After 2 min vortex and 5 min centrifugation at 14,000 rpm, supernatant was analyzed by LC/MS/MS (API 4000, Applied Biosystems, Foster City). Two sets of standard curves were run at the beginning and end of each batch from blood sample analysis. For brain and CSF samples, one standard curve was analyzed along with test samples.
Total brain levels, expressed as brain/blood ratio (Kp,brain) were measured by AUCbrain/AUCblood in rodents after oral administration. Free fraction of test compound in biological matrix was determined by in vitro blood and brain binding assay. Kp,uu brain and Kp,uu CSF were calculated by the following equation: Kp,uu brain=AUCbrain/AUCblood×(fu,brain/fu.blood) and Kp,uu CSF=AUCCSF/(AUCblood×fu.blood).

[2] = literature reports; cited from earlier work

Kp, uu CSF ([1]; AUCCSF/(AUCblood x fu,blood)): Below quantification limit
Kp uu ([1]; AUCbrain/AUCblood x (fu,brain/fu,blood), read-out: Kp, uu brain): 0.13
Structure (SMILES): CNC(=O)CN1CCC(Oc2cc3c(Nc4cccc(Cl)c4F)ncnc3cc2OC)CC1 [sapitinib]

Structure (SMILES): COc1cc2ncnc(Nc3ccc(F)c(Cl)c3)c2cc1NC(=O)/C=C/CN1CCCCC1 [dacomitinib]
adverse effects, such as skin rash and diarrhoea, share of NSCLC patients treated [2]: > 90%

Kp uu ([1]; CSF / blood, AUCCSF/(AUCblood x fu,blood), read-out: Kp, uu CSF): 2.6
Structure (SMILES): COc1cc2ncnc(Nc3cccc(Cl)c3F)c2cc1OC(=O)N1CCN(C)C[C@@H]1C [Example 3, 4-[(3-Chloro-2-fluorophenyl)amino]-7-methoxyquinazolin-6-yl (2S)-2,4-dimethylpiperazine-1-carboxylate]

Structure (SMILES): CN(C)C/C=C/C(=O)Nc1cc2c(Nc3ccc(F)c(Cl)c3)ncnc2cc1O[C@H]1CCOC1 [afatinib]
adverse effects, such as skin rash and diarrhoea, share of NSCLC patients treated [2]: > 90%

Structure (SMILES): COc1cc2ncnc(Nc3cccc(Cl)c3F)c2cc1OC(=O)N1CCN(C)C[C@H]1C [Example 1, 4-[(3-Chloro-2-fluorophenyl)amino]-7-methoxyquinazolin-6-yl (2R)-2,4-dimethylpiperazine-1-carboxylate]
Kp uu ([1]; male, Han Wistar, in vivo, po, 2 mg/kg, AUCCSF/(AUCblood x fu,blood), read-out: Kp, uu CSF): 1 to 1.3
Kp uu ([1]; male, Han Wistar, in vivo, po, 2 mg/kg, AUCbrain/AUCblood x (fu,brain/fu,blood), read-out: Kp, uu brain): 0.8 to 1.3
